Measurements taken from US8703964B2, “Bendamustine cyclopolysaccharide compositions” (Supratek Pharma Inc., priority 2009, dated 2014).
Read-outs that look alike come from different tables or passages of the source.

Columns and labels:
RPMI8226 cells = experiment: Cytotoxicity of bendamustine compositions pre-incubated with media, WST-1 (Example 23); format: cell-based; details: for Cell growth: RPMI8226, 72 h; for IC50: Homo sapiens, RPMI-8226, read-out: IC50 of bendamustine, RPMI8226
Experimental: BM and SBECD/LMWP formulation (40 mg/ml BM in 20% SBECD, 1% LMWP) were incubated in DMEM medium containing 10% FBS for 0, 1, or 4 h and then were added in varying concentrations to RPMI8226 cells. During BM treatment, concentrations of SBECD and LMWP were kept constant in culture medium at […], respectively. Cells were then grown for 72 h. The drug cytotoxicity was evaluated using WST-1 procedure.

[1] = Bendamustine chemical stability in plasma, HPLC (Example 31); format: in vitro ADME; details: heparinized human plasma, 37° C., initially 0.015 mg/mL bendamustine; read-out: T½ in plasma (decomposition half time)
Experimental: Heparinized human plasma was spiked, 20 μL into 780 μL of plasma, with the following bendamustine (BM) compositions:
The concentration of bendamustine in plasma after spiking was initially 0.015 mg/mL. The spiked plasma samples were incubated at 37° C. A sample of 50 μL was periodically withdrawn from spiked plasma, and transferred into 200 μL of 100 mM HCl solution in acetonitrile, mixed and centrifuged. 50 μL of the supernatant was diluted 20 times with 95% acetonitrile, then 20 μL of diluted samples were separated on Waters SymmetryShield RP18 3.5 μm column (4.6×50 mm) using gradient of acetonitrile (0.1% TFA) in water (0.1% TFA), flow 1.5 mL/min. Peak detection was performed by means of fluorescence detection with […] at 327 nm and emission at 420 nm. The area of the peak of Bendamustine was used to evaluate the rate of drug decomposition in the first order kinetics model.

[2] = Pharmacokinetics of bendamustine dosed to rats, composition with SBECD and LMWP (Example 25); format: in vivo, Female Sprague-Dawley rats; details: i.v. 10 mg/kg
Experimental: Control: 5 mg/mL bendamustine hydrochloride, 10.2 mg/mL of mannitol in 0.9% NaCl; dose of 10 mg/kg
5 mg/mL bendamustine hydrochloride, 20% w/w sodium sulfobutyl ether β-cyclodextrin, 10.2 mg/g mannitol in water; dose of 10 mg/kg.
5 mg/mL bendamustine hydrochloride, 20% w/w sodium sulfobutyl ether β-cyclodextrin, 1% LMWP, 10.2 mg/g mannitol in water; dose of 10 mg/kg.
Female Sprague-Dawley rats (250-350 g). The animals were kept three per cage with an air filter cover under light (12 h light/dark cycle, light on at 06 h00) and controlled temperature 22° C.+/−1° C. All manipulations with the animals were performed under a sterilized laminar hood. The animals had ad libitum access to Purina mouse chow and water. The animals were fasted overnight and anesthetized, before dosing. Dosing and Sampling: The bendamustine compositions and control were administered intravenously to rats via a tail vein. Blood samples were collected 5, 15, 30, 45 min, 1, 1.5, 2, 3 and 4 hrs post-injection. The rats were anesthetized by general inhalation of isoflurane. The blood samples were collected from the jugular vein with a heparinized tube and kept on ice. The sample was immediately centrifuged, and the plasma separated. The plasma samples were immediately extracted. Sample Extraction and Analysis: The plasma samples 0.100 mL were transferred to plastic tubes. The samples were extracted with 0.400 mL of 100 mM HCl in acetonitrile while being shaken vigorously for 30 seconds. The samples were centrifuged at 10000 RPM for 5 minutes. The supernatant was separated. The samples were frozen in dry ice and kept at −80° C. until HPLC analysis. The aliquots of 20 microliters were injected into HPLC for analysis. The HPLC Conditions: C18 reversed phase column 50×4.6 mm, Symmetry/Shield 3.5 micrometer Column temperature 30° C. Flow rate 1.5 mL/min Injection volume 20 microliters Fluorescence detection at wavelengths: excitation 327 nm, emission 420 nm Mobile phase: Buffer A: 5% acetonitrile 0.1% TFA Buffer B: 90% acetonitrile 0.1% TFA Run time: 10 min The pharmacokinetic profiles of Bendamustine for tested composition versus the control is shown in Table 9 below.

Q: For `Cn1c(CCCC(=O)O)nc2cc(N(CCCl)CCCl)ccc21` [BM, 4-[5-[bis(2-chloroethyl)amino]-1-methylbenzimidazol-2-yl]butanoic acid], which Cell growth (RPMI8226 cells; Bendamustine 1 uM, pre-incubated in medium 0 h) is on record?
A: 100%

Q: And the Cell growth (RPMI8226 cells; Bendamustine 1 uM, pre-incubated in medium 1 h)?
A: 100%

Q: What about the Cell growth (RPMI8226 cells; Bendamustine 1 uM, pre-incubated in medium 4 h) of the same molecule?
A: 100%

Q: And the Cell growth (RPMI8226 cells; Bendamustine 15 uM, pre-incubated in medium 0 h)?
A: 83%

Q: And the Cell growth (RPMI8226 cells; Bendamustine 15 uM, pre-incubated in medium 1 h)?
A: 100%

Q: What about the Cell growth (RPMI8226 cells; Bendamustine 15 uM, pre-incubated in medium 4 h) of the same molecule?
A: 100%

Q: What about the Cell growth (RPMI8226 cells; Bendamustine 31 uM, pre-incubated in medium 0 h) of the same molecule?
A: 70%

Q: What about the Cell growth (RPMI8226 cells; Bendamustine 31 uM, pre-incubated in medium 1 h) of the same molecule?
A: 100%

Q: What about the Cell growth (RPMI8226 cells; Bendamustine 31 uM, pre-incubated in medium 4 h) of the same molecule?
A: 100%

Q: And the Cell growth (RPMI8226 cells; Bendamustine 62 uM, pre-incubated in medium 0 h)?
A: 46%

Q: What about the Cell growth (RPMI8226 cells; Bendamustine 62 uM, pre-incubated in medium 1 h) of the same molecule?
A: 106%

Q: And the Cell growth (RPMI8226 cells; Bendamustine 62 uM, pre-incubated in medium 4 h)?
A: 104%

Q: What about the Cell growth (RPMI8226 cells; Bendamustine 125 uM, pre-incubated in medium 0 h) of the same molecule?
A: 11%

Q: What about the Cell growth (RPMI8226 cells; Bendamustine 125 uM, pre-incubated in medium 1 h) of the same molecule?
A: 20%

Q: And the Cell growth (RPMI8226 cells; Bendamustine 125 uM, pre-incubated in medium 4 h)?
A: 105%

Q: What about the Cell growth (RPMI8226 cells; Bendamustine 250 uM, pre-incubated in medium 0 h) of the same molecule?
A: −23%

Q: And the Cell growth (RPMI8226 cells; Bendamustine 250 uM, pre-incubated in medium 1 h)?
A: −45%

Q: What about the Cell growth (RPMI8226 cells; Bendamustine 250 uM, pre-incubated in medium 4 h) of the same molecule?
A: 75%

Q: And the Cell growth (RPMI8226 cells; Bendamustine 500 uM, pre-incubated in medium 0 h)?
A: −87%

Q: And the Cell growth (RPMI8226 cells; Bendamustine 500 uM, pre-incubated in medium 1 h)?
A: −85%

Q: And the Cell growth (RPMI8226 cells; Bendamustine 500 uM, pre-incubated in medium 4 h)?
A: 8%

Q: What about the Cell growth (RPMI8226 cells; Bendamustine 1000 uM, pre-incubated in medium 0 h) of the same molecule?
A: −98%

Q: What about the Cell growth (RPMI8226 cells; Bendamustine 1000 uM, pre-incubated in medium 1 h) of the same molecule?
A: −102%

Q: And the Cell growth (RPMI8226 cells; Bendamustine 1000 uM, pre-incubated in medium 4 h)?
A: −99%

Q: And the IC50 (RPMI8226 cells; time of pre-incubation 0 h)?
A: 62 µM

Q: What about the IC50 (RPMI8226 cells; time of pre-incubation 1 h) of the same molecule?
A: 106 µM

Q: What about the IC50 (RPMI8226 cells; time of pre-incubation 4 h) of the same molecule?
A: 390 µM

Q: What about the “LC50” value (RPMI8226 cells; RPMI8226, change of LC50 (50% death of cells) per hour of pre-incubation in medium) of the same molecule?
A: 107 ± 11 µM/h

Q: What about the “TGI” value (RPMI8226 cells; RPMI8226, change of TGI (total growth inhibition) per hour of pre-incubation in medium) of the same molecule?
A: 98 ± 18 µM/h

Q: What about the half-life at 0.015 mg/mL [1] of the same molecule?
A: 2.05 h

Q: What about the concentration at 1 h ([2]; female, Sprague-Dawley, rat, plasma, iv, 1 h post injection, read-out: Concentration of bendamustine in rat plasma, Mean (SEM)) of the same molecule?
A: 47 ng/mL

Q: What about the concentration at 3 h ([2]; female, Sprague-Dawley, rat, plasma, iv, 3 h post injection, read-out: Concentration of bendamustine in rat plasma, Mean (SEM)) of the same molecule?
A: 0 ng/mL

Q: And the “Concentration of bendamustine in rat plasma, Mean (SEM)” value (“Concentration of bendamustine … (SEM)” for short) ([2]; 0.08 h post injection)?
A: 6045 (388) ng/mL

Q: And the “Concentration of bendamustine … (SEM)” value ([2]; 0.25 h post injection)?
A: 2428 (250) ng/mL

Q: And the “Concentration of bendamustine … (SEM)” value ([2]; 0.5 h post injection)?
A: 520 (105) ng/mL

Q: And the “Concentration of bendamustine … (SEM)” value ([2]; 0.75 h post injection)?
A: 145 (35) ng/mL

Q: What about the “Concentration of bendamustine … (SEM)” value ([2]; 1.5 h post injection) of the same molecule?
A: 8 (1) ng/mL

Q: And the “Concentration of bendamustine … (SEM)” value ([2]; 2 h post injection)?
A: 2 (1) ng/mL
